PubChem BioAssay (NCI)
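Where inhibition never reached the appropriate level, the endpoint shown equals the highest concentration tested. Otherwise, values were interpolated linearly from a five-concentration, 48-hour dose response in 96-well plates. Definition used: TGI = concentration required for complete inhibition of growth.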

Assays:
Assay in all cases: NCI anticancer screen, dose series, 48 h
786-0 renal = system: 786-0 renal
A498 renal = system: A498 renal
A549 NSCLC = system: A549 NSCLC
ACHN renal = system: ACHN renal
BT-549 breast = system: BT-549 breast
CAKI-1 renal = system: CAKI-1 renal
CCRF-CEM leukemia = system: CCRF-CEM leukemia
DU-145 prostate = system: DU-145 prostate
EKVX NSCLC = system: EKVX NSCLC
HCC-2998 colon = system: HCC-2998 colon
HCT-116 colon = system: HCT-116 colon
HCT-15 colon = system: HCT-15 colon
HOP-62 NSCLC = system: HOP-62 NSCLC
HOP-92 NSCLC = system: HOP-92 NSCLC
HS 578T breast = system: HS 578T breast
HT29 colon = system: HT29 colon
IGROV1 ovarian = system: IGROV1 ovarian
K-562 leukemia = system: K-562 leukemia
KM12 colon = system: KM12 colon
LOX IMVI melanoma = system: LOX IMVI melanoma
M14 melanoma = system: M14 melanoma
MALME-3M melanoma = system: MALME-3M melanoma
MDA-MB-231 breast = system: MDA-MB-231 breast
MDA-MB-435 = system: MDA-MB-435
MDA-N = system: MDA-N
MOLT-4 leukemia = system: MOLT-4 leukemia
NCI-H226 lung = system: NCI-H226 lung
NCI-H23 lung = system: NCI-H23 lung
NCI-H460 lung = system: NCI-H460 lung
NCI-H522 lung = system: NCI-H522 lung
NCI/ADR-RES ovarian = system: NCI/ADR-RES ovarian
OVCAR-3 ovarian = system: OVCAR-3 ovarian
OVCAR-4 ovarian = system: OVCAR-4 ovarian
OVCAR-5 ovarian = system: OVCAR-5 ovarian
OVCAR-8 ovarian = system: OVCAR-8 ovarian
PC-3 prostate = system: PC-3 prostate
RXF 393 renal = system: RXF 393 renal
SF-268 CNS = system: SF-268 CNS
SF-295 CNS = system: SF-295 CNS
SK-MEL-2 melanoma = system: SK-MEL-2 melanoma
SK-MEL-28 melanoma = system: SK-MEL-28 melanoma
SK-MEL-5 melanoma = system: SK-MEL-5 melanoma
SN12C renal = system: SN12C renal
SNB-19 CNS = system: SNB-19 CNS
SNB-75 CNS = system: SNB-75 CNS
SR leukemia = system: SR leukemia
SW-620 colon = system: SW-620 colon
T-47D breast = system: T-47D breast
TK-10 renal = system: TK-10 renal
U251 CNS = system: U251 CNS
UACC-257 melanoma = system: UACC-257 melanoma
UACC-62 melanoma = system: UACC-62 melanoma
UO-31 renal = system: UO-31 renal
COLO 205 colon = system: COLO 205 colon
HL-60(TB) leukemia = system: HL-60(TB) leukemia
MCF7 breast = system: MCF7 breast
RPMI-8226 leukemia = system: RPMI-8226 leukemia
SF-539 CNS = system: SF-539 CNS
SK-OV-3 ovarian = system: SK-OV-3 ovarian

SMILES: CN(C)CS/C(N)=N\C(O)C(Cl)(Cl)Cl (stereo not given)
- TGI (786-0 renal): > 100 µM
- TGI (A498 renal): > 100 µM
- TGI (A549 NSCLC): > 100 µM
- TGI (ACHN renal): > 100 µM
- TGI (BT-549 breast): > 100 µM
- TGI (CAKI-1 renal): > 100 µM
- TGI (CCRF-CEM leukemia): > 100 µM
- TGI (DU-145 prostate): > 100 µM
- TGI (EKVX NSCLC): > 100 µM
- TGI (HCC-2998 colon): > 100 µM
- TGI (HCT-116 colon): > 100 µM
- TGI (HCT-15 colon): > 100 µM
- TGI (HOP-62 NSCLC): > 100 µM
- TGI (HOP-92 NSCLC): > 100 µM
- TGI (HS 578T breast): > 100 µM
- TGI (HT29 colon): > 100 µM
- TGI (IGROV1 ovarian): > 100 µM
- TGI (K-562 leukemia): > 100 µM
- TGI (KM12 colon): > 100 µM
- TGI (LOX IMVI melanoma): > 100 µM
- TGI (M14 melanoma): > 100 µM
- TGI (MALME-3M melanoma): > 100 µM
- TGI (MDA-MB-231 breast): > 100 µM
- TGI (MDA-MB-435): > 100 µM
- TGI (MDA-N): > 100 µM
- TGI (MOLT-4 leukemia): > 100 µM
- TGI (NCI-H226 lung): > 100 µM
- TGI (NCI-H23 lung): > 100 µM
- TGI (NCI-H460 lung): > 100 µM
- TGI (NCI-H522 lung): > 100 µM
- TGI (NCI/ADR-RES ovarian): > 100 µM
- TGI (OVCAR-3 ovarian): > 100 µM
- TGI (OVCAR-4 ovarian): > 100 µM
- TGI (OVCAR-5 ovarian): > 100 µM
- TGI (OVCAR-8 ovarian): > 100 µM
- TGI (PC-3 prostate): > 100 µM
- TGI (RXF 393 renal): > 100 µM
- TGI (SF-268 CNS): > 100 µM
- TGI (SF-295 CNS): > 100 µM
- TGI (SK-MEL-2 melanoma): > 100 µM
- TGI (SK-MEL-28 melanoma): > 100 µM
- TGI (SK-MEL-5 melanoma): > 100 µM
- TGI (SN12C renal): > 100 µM
- TGI (SNB-19 CNS): > 100 µM
- TGI (SNB-75 CNS): > 100 µM
- TGI (SR leukemia): > 100 µM
- TGI (SW-620 colon): > 100 µM
- TGI (T-47D breast): > 100 µM
- TGI (TK-10 renal): > 100 µM
- TGI (U251 CNS): > 100 µM
- TGI (UACC-257 melanoma): > 100 µM
- TGI (UACC-62 melanoma): > 100 µM
- TGI (UO-31 renal): > 100 µM

SMILES: Cn1c(=O)c2nc3nnc(C#N)c(N)n3c2n(C)c1=O
- TGI (786-0 renal): > 100 µM
- TGI (A498 renal): > 100 µM
- TGI (A549 NSCLC): > 100 µM
- TGI (ACHN renal): > 100 µM
- TGI (BT-549 breast): > 100 µM
- TGI (CAKI-1 renal): > 100 µM
- TGI (CCRF-CEM leukemia): > 100 µM
- TGI (COLO 205 colon): > 100 µM
- TGI (DU-145 prostate): > 100 µM
- TGI (EKVX NSCLC): > 100 µM
- TGI (HCC-2998 colon): > 100 µM
- TGI (HCT-116 colon): > 100 µM
- TGI (HCT-15 colon): > 100 µM
- TGI (HL-60(TB) leukemia): > 100 µM
- TGI (HOP-62 NSCLC): > 100 µM
- TGI (HOP-92 NSCLC): > 100 µM
- TGI (HT29 colon): > 100 µM
- TGI (IGROV1 ovarian): > 100 µM
- TGI (K-562 leukemia): > 100 µM
- TGI (KM12 colon): > 100 µM
- TGI (M14 melanoma): > 100 µM
- TGI (MALME-3M melanoma): 81.2 µM
- TGI (MCF7 breast): > 100 µM
- TGI (MDA-MB-231 breast): > 100 µM
- TGI (MDA-MB-435): > 100 µM
- TGI (MDA-N): > 100 µM
- TGI (MOLT-4 leukemia): > 100 µM
- TGI (NCI-H226 lung): > 100 µM
- TGI (NCI-H460 lung): > 100 µM
- TGI (NCI-H522 lung): > 100 µM
- TGI (NCI/ADR-RES ovarian): > 100 µM
- TGI (OVCAR-3 ovarian): > 100 µM
- TGI (OVCAR-4 ovarian): > 100 µM
- TGI (OVCAR-5 ovarian): > 100 µM
- TGI (OVCAR-8 ovarian): > 100 µM
- TGI (PC-3 prostate): > 100 µM
- TGI (RPMI-8226 leukemia): > 100 µM
- TGI (RXF 393 renal): > 100 µM
- TGI (SF-268 CNS): > 100 µM
- TGI (SF-295 CNS): > 100 µM
- TGI (SF-539 CNS): > 100 µM
- TGI (SK-MEL-2 melanoma): > 100 µM
- TGI (SK-MEL-28 melanoma): > 100 µM
- TGI (SK-MEL-5 melanoma): > 100 µM
- TGI (SK-OV-3 ovarian): > 100 µM
- TGI (SN12C renal): > 100 µM
- TGI (SR leukemia): > 100 µM
- TGI (T-47D breast): > 100 µM
- TGI (TK-10 renal): > 100 µM
- TGI (U251 CNS): > 100 µM
- TGI (UACC-62 melanoma): > 100 µM
- TGI (UO-31 renal): > 100 µM
